Assay: gradient 5% acetonitrile 3 min, to 50% in 2 min, to 85% in 15 min, held 3 min, 100 µL/min
Conditions: column: Zorbax Extend-C18 2.1 x 50 mm; eluents: water / acetonitrile, 0.1% formic acid
Summary of the method: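 Retention times come from adduct peaks that were picked computationally and then checked by hand. The standards, pure and pooled in mixtures of ~100 molecules, were run on a Zorbax Extend-C18 column (2.1 × 50 mm, 1.8 μm) at 100 μL/min with water and acetonitrile, each with 0.1% formic acid. Detection was by quadrupole time-of-flight mass spectrometry in positive and negative ionization mode, with a dead volume of 40 μL and a dwell volume of 900 μL.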

Row | SMILES | RP-LC retention time [s]
1 | COCCNC(=O)CC1Sc2ncccc2N(CC(C)C)C1=O (configuration not stated) | 659
2 | CCC(CC)C(=O)Nc1nc(-c2ccc3c(c2)NC(=O)C(C)O3)c(C)s1 (configuration not stated) | 922
3 | O=C(NCC1CCCO1)c1c[nH]c2ncccc12 (configuration not stated) | 589
4 | O=C(Cc1nnc(-c2cccc(F)c2)o1)NC1CCCC1 | 746
5 | Cc1ccc(N2CCN(c3ncc(C(=O)O)c(C)n3)CC2)cc1 | 863
6 | CCOC(=O)Cc1c(C)nc2c(-c3cccc(Br)c3)cnn2c1C | 1250
7 | CCc1cccc(C)c1NC(=O)Cn1nc(N2CCC(C)CC2)c2ccccc2c1=O | 1160
8 | COc1ccc(CN2C=C(C(=O)OCc3nc(-c4ccccc4)no3)C(C)=NS2(=O)=O)cc1 | 1100
9 | CCOC(=O)c1cc(S(=O)(=O)N2CCN(c3cccc(C)c3)C(C)C2)c(C)n1C (configuration not stated) | 1090
10 | CC(C)(C)c1nnc(NC(=O)C2CCN(C(=O)c3cccc(F)c3)CC2)s1 | 765
11 | COc1ccc(N2CC(c3nc(-c4ccc5c(c4)OCO5)no3)CC2=O)cc1 (configuration not stated) | 891
12 | CCOC(=O)c1ccc(NS(=O)(=O)c2cc3n(c2)CCCNC3=O)cc1 | 1010
13 | CCOc1ccc(NC(=O)Cn2nc(N3CCCC3)c3ccccc3c2=O)cc1 | 809
14 | CCOC(=O)CCc1c(C)nn(-c2cc(N3CCOCC3)ncn2)c1C | 863
15 | COc1ccccc1CNC1=NCCNC12CCN(S(=O)(=O)c1cc(C)ccc1C)CC2 | 775
16 | O=C(Nc1cc(-c2ccco2)nn1CCO)c1ccc(S(=O)(=O)N2CCOCC2)cc1 | 622
17 | O=c1[nH]c2cc(Br)cnc2[nH]c1=O | 553
18 | COCCc1noc(-c2cnc3nc(C)ccc3c2Nc2ccc(Cl)cc2)n1 | 760
19 | Cc1cc(NC(=O)c2ccc(-c3cncnc3)nc2)ccc1Br | 859
20 | O=C(NCCc1ccsc1)c1ccc(Cl)c(Cl)c1 | 933
21 | O=C(CN1CCN(Cc2ccccc2)C1=O)NC1CCN(Cc2ccccc2)CC1 | 599
22 | CCn1cc(C(=O)NCc2cccc(C)c2)c2cccnc21 | 812
23 | CCSc1nnc(-c2nn(C)c3c2CN(C(=O)c2cccc(N(C)C)c2)CC3)n1C | 682

Row | SMILES | RP-LC retention time [s]
24 | CCCCn1nc2ccc(S(=O)(=O)N3CCSCC3)cn2c1=O | 847
25 | CCCn1cc(CCNC(=O)Nc2ccc(F)cc2F)c2cccnc21 | 806
26 | Cc1cccc(Nc2c(-c3ccc(C(=O)O)cc3)nc3cnccn23)c1C | 780
27 | O=C(Cn1c(=O)c2cc(-c3cccs3)nn2c2ncccc21)Nc1ccc(F)cc1 | 870
28 | CC1CCCCN1S(=O)(=O)c1ccc2nc(N3CCN(c4ccccc4F)CC3)ccc2c1 (configuration not stated) | 1180
29 | CC(C)c1ccc(S(=O)(=O)c2cnc(N3CCC4(CC3)OCCO4)nc2N)cc1 | 1020
30 | Cc1ccc2c(c1)N(C(=O)CSc1ccc(N3CCCC(C(=O)NC4CC4)C3)nn1)CCO2 (configuration not stated) | 687
31 | Cc1nn(C)c(C)c1CNC(=O)CN1CCN(Cc2ccc(F)cc2)C1=O | 623
32 | COc1ccc(CC(=O)NCC(=O)Nc2nc3ccccc3[nH]2)cc1Cl | 636
33 | Cn1c(N2CCCC(C(=O)N3CCN(c4ccc(Cl)cc4)CC3)C2)cc(=O)n(C)c1=O (configuration not stated) | 800
34 | Cc1cc(N2CCN(C)CC2)nc2ccc(NC(=O)C(C)Oc3ccc(Cl)cc3Cl)cc12 (configuration not stated) | 690
35 | CC(=O)N1CCc2cc(-c3ccc(C(=O)NC4CCS(=O)(=O)C4)cc3)ccc21 (configuration not stated) | 676
36 | CCCNc1cc(N2CCC(CCC(=O)NCc3ccc(N4CCOCC4)cc3)CC2)ncn1 | 631
37 | O=c1c2cc(-c3ccccc3)nn2ccn1Cc1noc(CN2CCCCCC2)n1 | 671
38 | CCOc1ccc(-n2ccn3c(CCCC(=O)NCCc4c[nH]c5ccccc45)nnc3c2=O)cc1 | 761
39 | O=c1ccc(-c2ccc(F)cc2)nn1CCc1nc(-c2ccc(Br)cc2)no1 | 1110
40 | Cc1cn2c(S(=O)(=O)NC3CCCCCC3)c(C(C)C)nc2s1 | 1050
41 | CC1CCN(S(=O)(=O)N2CCC(C(=O)N3CCC(Cc4nncn4CC4CC4)CC3)CC2)CC1 | 751
42 | CCc1ccc(-c2noc(Cn3cnc4c(cnn4-c4cc(Cl)ccc4C)c3=O)n2)cc1 | 1210
43 | CCc1ccc(-c2noc(Cn3c(=O)n(Cc4ccc(OC)cc4)c(=O)c4sccc43)n2)cc1 | 1190
44 | CN(C)C(=O)c1ccc2c(c1)nnn2CCNC(=O)Nc1ccc(Br)cc1F | 703
45 | O=C(CN1CCC2(CC1)N=C(c1ccccc1)C(=O)N2)Nc1cccc(Br)c1 | 687
46 | CCc1nnc(-c2ccc3ccn(CC(=O)NCCc4sccc4C)c3c2)o1 | 1170

Row | SMILES | RP-LC retention time [s]
47 | CCCN(C)S(=O)(=O)c1cc(-c2nnc(C)o2)co1 | 768
48 | Cc1ccc(C(C)NC(=O)c2ccc(-c3cccnc3)nc2)c(C)c1 (configuration not stated) | 745
49 | CN1CCN(CCNC(=O)Cn2c(=O)c3cccn3c3ccc(F)cc32)CC1 | 578
50 | CC1(C(=O)NCc2cccc(Br)c2)Oc2cccnc2NC1=O (configuration not stated) | 730
51 | CCOc1ccc(S(=O)(=O)N2CCCC(C(N)=O)C2)cc1C (configuration not stated) | 747
52 | CN1C(=O)c2cc(C(=O)NCCCN3CCCC3)nn2CC1(C)C(=O)NCc1ccc(F)cc1 (configuration not stated) | 585
53 | O=S(=O)(c1cccs1)N1CCc2nc(-c3ccc(F)cc3)ncc2C1 | 1030
54 | Cc1ccc(NC(=O)CSc2ccc(N3CCCC(C(=O)NC4CC4)C3)nn2)cc1Cl (configuration not stated) | 698
55 | CC(C)Cn1c(=O)c(-c2ccc(C(=O)N3CCN(C)CC3)cc2)nc2ccccc21 | 670
56 | COc1ncc(C(=O)NC(C)c2ccc(F)cc2)cn1 (configuration not stated) | 756
57 | COc1ccccc1C(=O)N1CCCC1COc1ccc(C(=O)NC2CC2)cc1 (configuration not stated) | 759
58 | Cc1nn2c(N3CCN(c4ccccn4)CC3)cc(C(C)(C)C)nc2c1-c1ccc(F)cc1 | 1090
59 | CCc1ccccc1NC(=O)c1cc(CC)n2nccc2n1 | 1150
60 | O=C(NCCCN1CCCC1)C1CCN(c2cnc(N3CCCC3)nc2)CC1 | 542
61 | CCCNC(=O)C1CCN(c2nc3ccc(-c4ccsc4)nc3s2)CC1 | 851
62 | Cc1nc2cc(-c3noc(-c4ccc(C#N)cc4)n3)ccc2o1 | 1010
63 | Cn1c(=O)sc2cc(S(=O)(=O)N3CCC(C(=O)NCCc4nc5ccccc5[nH]4)CC3)ccc21 | 624
64 | Cc1cc(C)n(-c2cc(NCCNC(=O)c3ccc(Br)o3)ncn2)n1 | 718
65 | CCN1c2cc(Cl)ccc2C(=O)NC12CCN(C(=O)NCc1ccc(C)cc1)CC2 | 888
66 | Cc1sc(NC(=O)CN(C)S(C)(=O)=O)c(C#N)c1C | 719
67 | CC(=O)NCc1csc(C2CCN(C(=O)COc3ccccc3)CC2)n1 | 646

Source: the METLIN SMRT retention time set (Domingo-Almenara et al. 2019)
